In US9446018B2, “Pharmaceutical composition for treating or preventing angina or myocardial infarction induced by myocardial ischemia” (SINPHAR TIAN-LI PHARMACEUTICAL CO., LTD. (HANGZHOU), priority 2009, dated 2016):

System: myocardial cells (death induced from partial myocardial ischemia)
Test: Embodiment 1: myocardial infarct size after 1 h ligature of the left descending coronary branch and 1 h reperfusion (TTC staining)
Format: in vivo, Crl:CD(SD) SPF rats

O=[N+]([O-])O[C@H]1CO[C@H]2[C@@H]1OC[C@H]2O[N+](=O)[O-] [isosorbide dinitrate]
effect on myocardial infarct size compared with the blank control group (in words) (rat, in vivo): significant reduction in myocardial infarct size

CC(=O)Oc1ccccc1C(=O)O [Aspirin]
effect on myocardial infarct size compared with the blank control group (in words) (Embodiment 1, Table 1, STA-2 alone in high dose or in low dose): did not produce any statistically meaningful effects | Myocardial Infarction Percentage (%) (rat, tube-fed once daily 7 days + IP 1/3 dose after ligation, isosorbide dinitrate 18.75 mg/Kg, STA-2 low dose 250 mg/Kg, Aspirin 8.3 mg/Kg, mean ± SEM): 14.75 ± 2.8%
